From US7659270B2, “Hepatitis C virus inhibitors” (Bristol-Myers Squibb Company, priority 2006, dated 2010)

These compounds were tested on HCV 1b-377-neo replicon cells (assay: HCV replicon assay (HCV 1b-377-neo replicon cells)). Settings: Hepatitis C virus, read-out: EC50 range against HCV 1b (Range).
Format: cell-based, Hepatitis C virus genotype 1b
In short: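 HCV genotype 1b (1b-377-neo) replicon cells, run as a validated replicon assay; parallel testing in replicon cells carrying the NS5A Y2065H resistance mutation.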

| Structure (SMILES) | EC50 [nM] |
| --- | --- |
| COC(=O)N[C@@H](C(=O)N(C)[C@@H](C)c1ncc(-c2ccc(-c3ncc(-c4cnc([C@@H]5CCCN5C(=O)[C@H](NC(=O)OC)c5ccccc5)[nH]4)cn3)cc2)[nH]1)c1ccccc1 [Example 152j-21, methyl ((1R)-2-((2S)-2-(5-(2-(4-(2-((1S)-1-(((2R)-2-((methoxycarbonyl)a-mino)-2-phenylacetyl)(methyl)amino)ethyl)-1H-imidazol-5-yl)phenyl)-5-pyrimidinyl)-1H-imidazol-2-yl)-1-pyrrolidinyl)-2-oxo-1-phenylethyl)carbamate] | 0.01 to 0.999 |
| COC(=O)N[C@@H](C(=O)N[C@@H](C)c1ncc(-c2ccc(-c3ccc(-c4cnc([C@@H]5CCCN5C(=O)[C@H](NC(=O)OC)c5ccccc5)[nH]4)cc3)nc2)[nH]1)c1ccccc1 [Example 152j-22, methyl ((1R)-2-((2S)-2-(5-(4-(5-(2-((1S)-1-(((2R)-2-((methoxycarbonyl)a-mino)-2-phenyl-acetyl)amino)eth-yl)-1H-imidazol-5-yl)-2-pyridinyl)phenyl)-1H-imidazol-2-yl)-1-pyrrolidinyl)-2-oxo-1-phenylethyl)carbamate] | 0.01 to 0.999 |
| COC(=O)N[C@@H](C(=O)N[C@@H](C)c1ncc(-c2ccc(-c3ccc(-c4cnc([C@H](C)NC(=O)[C@H](NC(=O)OC)c5ccccc5)[nH]4)cn3)cc2)[nH]1)c1ccccc1 [Example 152j-23] | 0.01 to 0.999 |
| C[C@H](NC(=O)[C@@H](c1ccccc1)N(C)C)c1ncc(-c2ccc(-c3ccc(-c4cnc([C@H](C)NC(=O)[C@@H](c5ccccc5)N(C)C)[nH]4)cn3)cc2)[nH]1 [Example 152j-24, (2R)-2-(dimethylamino)-N-((1S)-1-(5-(6-(4-(2-((1S)-1-(((2R)-2-(dimethylamino)-2-phenyl-acetyl)amino)eth-yl)-1H-imidazol-5-yl)phenyl)-3-pyridinyl)-1H-imidazol-2-yl)ethyl)-2-phenylacetamide] | 0.01 to 0.999 |
| COC(=O)N[C@@H](C(=O)N[C@@H](C)c1ncc(-c2ccc(-c3cnc(-c4cnc([C@@H]5CCCN5C(=O)[C@H](NC(=O)OC)c5ccccc5)[nH]4)cn3)cc2)[nH]1)c1ccccc1 [Example 152j-28] | 0.01 to 0.999 |
| COC(=O)N[C@@H](C(=O)N(C)[C@@H](C)c1ncc(-c2ccc(-c3ncc(-c4cnc([C@@H]5CCCN5C(=O)[C@@H](c5ccccc5)N5CCCCC5)[nH]4)cn3)cc2)[nH]1)c1ccccc1 [Example 152l-1, methyl ((1R)-2-(meth-yl((1S)-1-(4-(4-(5-(2-((2S)-1-((2R)-2-phenyl-2-(1-piperi-dinyl)acetyl)-2-pyrrolidinyl)-1H-imidazol-5-yl)-2-pyrimi-dinyl)phenyl)-1H-imidazol-2-yl)eth-yl)amino)-2-oxo-1-phenyl-ethyl)carbamate] | 0.01 to 0.999 |
| COC(=O)N[C@@H](C(=O)N[C@@H](C)c1ncc(-c2ccc(-c3ncc(-c4cnc([C@@H]5CCCN5C(=O)[C@@H](c5ccccc5)N5CCCCC5)[nH]4)cn3)cc2)[nH]1)c1ccccc1 [Example 152l-2, methyl ((1R)-2-oxo-1-phen-yl-2-(((1S)-1-(4-(4-(5-(2-((2S)-1-((2R)-2-phenyl-2-(1-piperi-dinyl)acetyl)-2-pyrrolidinyl)-1H-imidazol-5-yl)-2-pyrimi-dinyl)phenyl)-1H-imidazol-2-yl)eth-yl)amino)ethyl)car-bamate] | 0.01 to 0.999 |
| COC(=O)N[C@@H](C(=O)N1CCC[C@H]1c1ncc(-c2ccc(-c3ncc(-c4cnc([C@@H]5CCCN5C(=O)[C@@H](c5ccccc5)N5CCCCC5)[nH]4)cn3)cc2)[nH]1)c1ccccc1 [Example 152l-3, methyl ((1R)-2-oxo-1-phe-nyl-2-((2S)-2-(4-(4-(5-(2-((2S)-1-((2R)-2-phenyl-2-(1-piperidinyl)acetyl)-2-pyrrolidinyl)-1H-imidazol-5-yl)-2-pyrimi-dinyl)phenyl)-1H-imidazol-2-yl)-1-pyrroli-dinyl)ethyl)carba-mate] | 0.01 to 0.999 |
| CN(C)[C@@H](C(=O)N1CCC[C@H]1c1ncc(-c2ccc(-c3ccc(-c4cnc([C@@H]5CCCN5C(=O)[C@@H](c5ccccc5)N(C)C)[nH]4)nn3)nn2)[nH]1)c1ccccc1 [Example 153c-1] | 1 to 99 |
| COC(=O)N[C@@H](C(=O)N1CCC[C@H]1c1ncc(-c2ccc(-c3ccc(-c4cnc([C@@H]5CCCN5C(=O)[C@H](NC(=O)OC)c5ccccc5)[nH]4)nn3)nn2)[nH]1)c1ccccc1 [Example 153c-2, dimethyl (3,3′-bipyrida-zine-6,6′-diylbis(1H-imi-dazole-5,2-diyl(2S)-2,1-pyrrolidine-diyl((1R)-2-oxo-1-phenyl-2,1-ethane-diyl)))biscarba-mate] | 1 to 99 |
| CN(C)[C@@H](C(=O)N1CCC[C@H]1c1ncc(-c2cnc(-c3ncc(-c4cnc([C@@H]5CCCN5C(=O)[C@@H](c5ccccc5)N(C)C)[nH]4)cn3)nc2)[nH]1)c1ccccc1 [Example 153c-3, (1R,1′R)-2,2′-(2,2′-bipyrimi-dine-5,5′-diylbis(1H-imidazole-5,2-diyl (2S)-2,1-pyrrolidine-diyl))bis(N, N-dimeth-yl-2-oxo-1-phenyl-ethanamine)] | 1000 to 10000 |
| COC(=O)N[C@@H](C(=O)N1CCC[C@H]1c1ncc(-c2cnc(-c3ncc(-c4cnc([C@@H]5CCCN5C(=O)[C@H](NC(=O)OC)c5ccccc5)[nH]4)cn3)nc2)[nH]1)c1ccccc1 [Example 153c-4, dimethyl (2,2′-bipyrimi-dine-5,5′-diylbis(1H-imi-dazole-5,2-diyl (2S)-2,1-pyrrolidine-diyl((1R)-2-oxo-1-phe-nyl-2,1-ethane-diyl)))biscarba-mate] | 1000 to 10000 |
| CN(C)[C@@H](C(=O)N1CCC[C@H]1c1ncc(-c2cnc(-c3cnc(-c4cnc([C@@H]5CCCN5C(=O)[C@@H](c5ccccc5)N(C)C)[nH]4)cn3)cn2)[nH]1)c1ccccc1 [Example 153c-5, (1R,1′R)-2,2′-(2,2′-bipyrazine-5,5′-diylbis(1H-imidazole-5,2-diyl (2S)-2,1-pyrrolidine-diyl))bis(N, N-dimeth-yl-2-oxo-1-phenyl-ethanamine)] | 1 to 99 |
| COC(=O)N[C@@H](C(=O)N1CCC[C@H]1c1ncc(-c2cnc(-c3cnc(-c4cnc([C@@H]5CCCN5C(=O)[C@H](NC(=O)OC)c5ccccc5)[nH]4)cn3)cn2)[nH]1)c1ccccc1 [Example 153c-6, dimethyl (2,2′-bipyrazine-5,5′-diylbis(1H-imi-dazole-5,2-diyl (2S)-2,1-pyrrolidine-diyl((1R)-2-oxo-1-phe-nyl-2,1-ethane-diyl)))biscarba-mate] | 1 to 99 |
| COC(=O)N[C@@H](C(=O)N[C@@H](C)c1ncc(-c2ccc(-c3ccc(-c4cnc([C@H](C)NC(=O)[C@H](NC(=O)OC)c5ccccc5)[nH]4)cn3)nc2)[nH]1)c1ccccc1 [Example 153c-7, dimethyl (2,2′-bipyridine-5,5′-diylbis (1H-imidazole-5,2-diyl (1S)-1,1-ethanediyl-imino((1R)-2-oxo-1-phenyl-2,1-ethane-diyl)))biscarba-mate] | 1 to 99 |
| COC(=O)N[C@@H](C)C(=O)N1CCC[C@H]1c1nc(-c2cnc(-c3ccc(-c4cnc([C@@H]5CCCN5C(=O)[C@H](C)NC(=O)OC)[nH]4)c(F)c3)nc2)c[nH]1 [Example D67, methyl ((1S)-2-((2S)-2-(5-(2-flouro-4-(5-(2-((2S)-1-(N-(methoxy-carbonyl)-L-alanyl)-2-pyrroli-dinyl)-1H-imida-zol-5-yl)-2-pyrimi-dinyl)phenyl)-1H-imida-zol-2-yl)-1-pyrrolidinyl)-1-methyl-2-oxoeth-yl)carbamate] | 0.01 to 0.999 |
| COC(=O)N[C@@H](C(=O)N1CCC[C@H]1c1nc(-c2cnc(-c3ccc(-c4cnc([C@@H]5CCCN5C(=O)[C@H](NC(=O)OC)c5ccccc5)[nH]4)c(F)c3)nc2)c[nH]1)c1ccccc1 [Example D69, methyl ((1R)-2-((2S)-2-(5-(2-(3-fluoro-4-(2-((2S)-1-((2R)-2-((methoxy-carbonyl)a-mino)-2-phenyl-acetyl)-2-pyrroli-dinyl)-1H-imidazol-5-yl)phenyl)-5-pyrimi-dinyl)-1H-imida-zol-2-yl)-1-pyrrolidinyl)-2-oxo-1-phenyl-eth-yl)carbamate] | 0.01 to 0.999 |
| COC(=O)N[C@H](C(=O)N1CCC[C@H]1c1nc(-c2cnc(-c3ccc(-c4cnc([C@@H]5CCCN5C(=O)[C@@H](NC(=O)OC)[C@@H](C)OC)[nH]4)c(F)c3)nc2)c[nH]1)[C@@H](C)OC [Example D70, methyl ((1S,2R)-1-(((2S)-2-(5-(2-fluoro-4-(5-(2-((2S)-1-(N-(methoxy-carbonyl)-O-methyl-L-threonyl)-2-pyrroli-dinyl)-1H-imida-zol-5-yl)-2-pyrimidi-nyl)phenyl)-1H-imida-zol-2-yl)-1-pyrroli-dinyl)carbo-nyl)-2-methoxy-propyl)carba-mate] | 0.01 to 0.999 |
| COC(=O)N[C@@H](C)C(=O)N1CCC[C@H]1c1nc(-c2cnc(-c3ccc(-c4cnc([C@@H]5CCCN5C(=O)[C@H](C)NC(=O)OC)[nH]4)cc3)nc2)c[nH]1 [Example D73, methyl ((1S)-2-((2S)-2-(5-(4-(5-(2-((2S)-1-(N-(methoxy-carbonyl)-L-alanyl)-2-pyrroli-dinyl)-1H-imida-zol-5-yl)-2-pyrimi-dinyl)phenyl)-1H-imidazol-2-yl)-1-pyrroli-dinyl)-1-methyl-2-oxoeth-yl)carbamate] | 0.01 to 0.999 |

Same assay, conditions: read-out: EC50 range against HCV 1b (Range)

| Structure (SMILES) | EC50 [nM] |
| --- | --- |
| COC(=O)N[C@H](C(=O)N1CCC[C@H]1c1ncc(-c2cnc(-c3ccc(-c4cnc([C@@H]5CCCN5C(=O)[C@@H](NC(=O)OC)C(C)C)[nH]4)c(F)c3)nc2)[nH]1)C(C)C [Example D68, methyl ((1S)-1-(((2S)-2-(5-(2-fluoro-4-(5-(2-((2S)-1-((2S)-2-((methoxy-carbonyl)a-mino)-3-methyl-butanoyl)-2-pyrroli-dinyl)-1H-imida-zol-5-yl)-2-pyrimi-dinyl)phenyl)-1H-imida-zol-2-yl)-1-pyrroli-dinyl)carbo-nyl)-2-methylpro-pyl)carbamate] | 0.01 to 0.999 |
